Assay results from patent publication US9533985B2, “Sulfonamide derivative and medicinal use thereof” (EA Pharma Co., Ltd., priority 2012, dated 2017).

Experiments:
Assay type in all cases: cell-based
α4β7 integrin [1] = molecular target: T1, α4β7 integrin (Homo sapiens (Human), UniProt P13612+P26010); assay: MAdCAM-1/α4β7 integrin binding inhibitory activity evaluation test in the presence of serum (1); details: RPMI-8866 cells binding to mouse MAdCAM-1/Fc, human serum at final concentration of 50%; read-out: α4β7 with serum added, IC50
Description: (§1) The ability of test substances to inhibit the binding of a human B cell line, RPMI-8866, which is known to express α4β7 integrin, to MAdCAM-1 was measured. To 96-well microtiter plates, recombinant mouse MAdCAM-1/Fc (R&D systems) solution (1 μg/mL) diluted with buffer A (carbonate buffer, pH 9.6) was added at 50 μL/well, followed by incubation at 4° C. overnight. After washing once with PBS, Block Ace (Snow Brand Milk Products Company, Limited) was added at 150 μL/well, followed by incubation at room temperature for 2 hours. After removal, washing was conducted once with PBS. 100 μL of each test substance diluted with a binding buffer (DMEM containing 40 mM HEPES, 0.2% BSA, and 4 mM MnCl2) to various concentrations and 100 μL of RPMI-8866 cells (2×10^6 cell/mL) were added to plates coated with MAdCAM-1/Fc (5×10^5 cells/well) with human serum being contained at a final concentration of 50%, followed by incubation at 30° C. for 15 minutes to 60 minutes. After the cells were bound to each well, unbound cells were removed by washing with PBS. To the plates, buffer C (PBS containing 1.5% Triton X-100) was added at 50 μL/well to lyse the bound RPMI-8866 cells. To 30 μL of the cell lysate, 30 μL of Substrate Buffer (Promega, CytoTox 96 Non-Radioactive Cytotoxicity Assay) was added, and the reaction was allowed to proceed at room temperature in a dark place for 30 minutes. To each well, 30 μL of Stop Solution (Promega, CytoTox 96 Non-Radioactive Cytotoxicity Assay) was added, and the absorbance at 490 nm was measured by using a plate reader. Here, by the obtained absorbance, the activity of the lactate dehydrogenase (LDH) dissolved into the supernatant of each well was detected. In other words, the absorbance was proportional to the number of the RPMI-8866 cells bound to MAdCAM-1 and remaining on the plate. The test was duplicated. The binding ratios of the cells at various concentrations were determined, with the absorbance of a well containing no test substance taken as 100%. Then, the concentration IC50, at which 50% binding inhibition was achieved, was calculated.

α4β7 integrin [2] = molecular target: T1, α4β7 integrin; assay: MAdCAM-1/α4β7 integrin binding inhibitory activity evaluation test (RPMI-8866 cell adhesion to MAdCAM-1/Fc); details: for Selectivity: IC50 in VCAM-1/α4β1 test divided by IC50 in MAdCAM-1/α4β7 test; for IC50: RPMI-8866 cells binding to recombinant mouse MAdCAM-1/Fc, no serum
Description: as §1, with “systems) solution (0.75 μg/mL) diluted” for “systems) solution (1 μg/mL) diluted”, “A (carbonate buffer solution, pH 9.6)” for “A (carbonate buffer, pH 9.6)”, “diluted with binding buffer” for “diluted with a binding buffer”, “added to the plates coated” for “added to plates coated”, “MAdCAM-1/Fc (5×10^5 cells/well), followed by” for “MAdCAM-1/Fc (5×10^5 cells/well) with human serum being contained at a final concentration of 50%, followed by”, “was calculated. […] Note that the selectivity in the table was determined by dividing the IC50 value in VCAM-1/α4β1 Integrin Binding Inhibitory Activity Evaluation Test by the IC50 value in the MAdCAM-1/α4β7 integrin binding inhibitory activity evaluation test.” for “was calculated.”

α4β1 integrin = α4β1 integrin (Homo sapiens (Human), UniProt P05556+P13612); assay: VCAM-1/α4β1 integrin binding inhibitory activity evaluation test (Jurkat cell adhesion to VCAM-1/Fc); details: Jurkat cells binding to recombinant human VCAM-1/Fc
Description: The ability of test substances to inhibit the binding of a human T-cell line, Jurkat, which is known to express α4β1 integrin, to VCAM-1 was measured. To 96-well microtiter plates, recombinant human VCAM-1/Fc (R&D systems) solution (1 μg/mL) diluted with buffer A (carbonate buffer, pH 9.6) was added at 50 μL/well, followed by incubation at 4° C. overnight. After washing once with PBS, Block Ace (Snow Brand Milk Products Company, Limited) was added at 150 μL/well, followed by incubation at room temperature for 2 hours. After removal, washing was conducted once with PBS. 100 μL of each test substance diluted with a binding buffer (DMEM containing 40 mM HEPES, 0.2% BSA, and 4 mM MnCl2) to various concentrations and 100 μL of the Jurkat cells (2×10^6 cell/mL) were added to the plates coated with VCAM-1/Fc (5×10^5 cells/well), followed by incubation at 30° C. for 15 minutes to 60 minutes. After the cells were bound to each well, unbound cells were removed by washing with PBS. To the plates, buffer C (PBS containing 1.5% Triton X-100) was added at 50 μL/well to lyse the bound Jurkat cells. To 30 μL of the cell lysate, 30 μL of Substrate Buffer (Promega, CytoTox 96 Non-Radioactive Cytotoxicity Assay) was added, and the reaction was allowed to proceed at room temperature in a dark place for 30 minutes. To each well, 30 μL of Stop Solution (Promega, CytoTox 96 Non-Radioactive Cytotoxicity Assay) was added, and the absorbance at 490 nm was measured by using a plate reader. Here, by the obtained absorbance, the activity of the lactate dehydrogenase (LDH) dissolved into the supernatant of each well was detected. In other words, the absorbance was proportional to the number of the Jurkat cells bound to VCAM-1 and remaining on the plate. The test was duplicated. The binding ratios of the cells at various concentrations were determined, with the absorbance of a well containing no test substances taken as 100%. Then, the concentration IC50, at which 50% binding inhibition was achieved, was calculated. […] Note that, among the compounds synthesized in the corresponding Examples, the compounds in the free form (Compounds A-1 to A-39) were used as the test compounds. Hereinafter, the same shall apply.

α4β1 integrin, sequence (P13612 34-1032): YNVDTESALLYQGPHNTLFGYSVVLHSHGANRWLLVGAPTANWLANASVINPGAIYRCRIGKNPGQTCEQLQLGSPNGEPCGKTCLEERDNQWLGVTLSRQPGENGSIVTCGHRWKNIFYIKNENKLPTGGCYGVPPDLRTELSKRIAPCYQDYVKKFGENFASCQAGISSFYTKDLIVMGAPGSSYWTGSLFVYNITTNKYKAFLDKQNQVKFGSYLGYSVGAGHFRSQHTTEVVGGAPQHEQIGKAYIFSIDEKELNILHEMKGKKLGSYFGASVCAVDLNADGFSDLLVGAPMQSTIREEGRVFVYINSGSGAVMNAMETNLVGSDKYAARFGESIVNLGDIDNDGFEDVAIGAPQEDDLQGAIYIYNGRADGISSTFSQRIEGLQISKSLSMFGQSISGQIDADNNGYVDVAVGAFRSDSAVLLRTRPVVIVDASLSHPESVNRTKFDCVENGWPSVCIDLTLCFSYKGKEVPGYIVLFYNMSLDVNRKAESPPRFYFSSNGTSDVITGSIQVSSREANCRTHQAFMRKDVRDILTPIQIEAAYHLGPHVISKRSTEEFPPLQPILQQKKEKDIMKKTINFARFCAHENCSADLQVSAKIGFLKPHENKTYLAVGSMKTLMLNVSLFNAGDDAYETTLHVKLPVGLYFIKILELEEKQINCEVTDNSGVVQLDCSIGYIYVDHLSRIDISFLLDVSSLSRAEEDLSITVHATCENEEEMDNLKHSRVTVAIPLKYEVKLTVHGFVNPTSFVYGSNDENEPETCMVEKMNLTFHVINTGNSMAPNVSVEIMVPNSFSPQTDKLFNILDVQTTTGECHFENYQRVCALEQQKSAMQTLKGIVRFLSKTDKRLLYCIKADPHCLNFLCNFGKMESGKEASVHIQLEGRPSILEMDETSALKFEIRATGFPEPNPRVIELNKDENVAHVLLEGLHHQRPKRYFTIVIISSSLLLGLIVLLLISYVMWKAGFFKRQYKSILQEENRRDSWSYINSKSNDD
α4β1 integrin, sequence (P05556 21-798): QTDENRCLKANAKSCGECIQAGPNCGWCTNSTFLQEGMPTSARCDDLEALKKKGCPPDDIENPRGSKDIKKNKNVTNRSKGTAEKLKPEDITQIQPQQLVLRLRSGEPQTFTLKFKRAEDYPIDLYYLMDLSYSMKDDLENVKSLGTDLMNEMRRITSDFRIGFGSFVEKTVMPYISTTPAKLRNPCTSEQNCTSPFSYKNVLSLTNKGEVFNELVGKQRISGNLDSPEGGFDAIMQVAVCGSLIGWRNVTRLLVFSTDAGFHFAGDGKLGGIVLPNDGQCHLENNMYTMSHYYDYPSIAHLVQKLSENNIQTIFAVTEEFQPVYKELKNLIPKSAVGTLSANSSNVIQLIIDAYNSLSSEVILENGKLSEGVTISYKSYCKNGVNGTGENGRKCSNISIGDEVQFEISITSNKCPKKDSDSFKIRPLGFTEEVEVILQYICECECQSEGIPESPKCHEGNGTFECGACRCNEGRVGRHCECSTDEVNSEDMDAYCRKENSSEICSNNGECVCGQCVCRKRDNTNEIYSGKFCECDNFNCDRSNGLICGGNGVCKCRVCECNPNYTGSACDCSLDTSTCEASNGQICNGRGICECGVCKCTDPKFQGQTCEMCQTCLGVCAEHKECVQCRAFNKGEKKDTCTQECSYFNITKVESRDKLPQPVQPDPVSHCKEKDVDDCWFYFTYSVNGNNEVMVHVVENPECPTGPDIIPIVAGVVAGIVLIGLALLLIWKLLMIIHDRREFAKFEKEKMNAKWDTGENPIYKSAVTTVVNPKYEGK
T1 sequence (P13612 34-1032): as the sequence (P13612 34-1032) above
T1 sequence (P26010 20-798): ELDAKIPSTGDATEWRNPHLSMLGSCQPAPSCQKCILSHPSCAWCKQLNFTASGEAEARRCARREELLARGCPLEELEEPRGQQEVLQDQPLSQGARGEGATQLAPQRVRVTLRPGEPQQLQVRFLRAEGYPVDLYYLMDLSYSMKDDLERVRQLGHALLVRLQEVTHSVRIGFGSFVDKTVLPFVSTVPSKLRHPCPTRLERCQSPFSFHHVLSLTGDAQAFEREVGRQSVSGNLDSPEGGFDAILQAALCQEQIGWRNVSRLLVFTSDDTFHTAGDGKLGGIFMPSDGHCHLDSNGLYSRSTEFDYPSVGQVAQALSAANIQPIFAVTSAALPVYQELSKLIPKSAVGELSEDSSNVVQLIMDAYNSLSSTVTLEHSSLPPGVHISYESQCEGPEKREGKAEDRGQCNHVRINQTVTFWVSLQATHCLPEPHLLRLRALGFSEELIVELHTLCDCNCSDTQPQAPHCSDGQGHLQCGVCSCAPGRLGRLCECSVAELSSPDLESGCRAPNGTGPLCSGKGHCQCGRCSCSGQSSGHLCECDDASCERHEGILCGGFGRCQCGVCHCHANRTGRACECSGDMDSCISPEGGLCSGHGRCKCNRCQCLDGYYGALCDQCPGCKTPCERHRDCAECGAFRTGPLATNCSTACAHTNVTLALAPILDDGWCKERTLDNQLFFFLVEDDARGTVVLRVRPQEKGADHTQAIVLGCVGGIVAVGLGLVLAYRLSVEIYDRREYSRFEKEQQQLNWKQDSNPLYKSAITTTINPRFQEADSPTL

Row | IC50 (α4β7 integrin [1]) [nM] | Selectivity (α4β7 integrin [2]) | IC50 (α4β7 integrin [2]) [nM] | IC50 (α4β1 integrin) [nM] | SMILES
1 | 9.7 | 750 | 0.56 | 420 | Cc1cnccc1-c1ccc(S(=O)(=O)Nc2cc(F)c(C(=O)N[C@@H](Cc3ccc(-n4c(=O)c5ccncc5n(C)c4=O)cc3)C(=O)O)c(F)c2)cc1 [Example 65, N-[2,6-Difluoro-4-({[4-(3-methylpyridin-4-yl)phenyl]sulfonyl}amino)benzoyl]-4-(1-methyl-2,4-dioxo-1,4-dihydropyrido[3,4-d]pyrimidin-3(2H)-yl)-L-phenylalanine]
2 | 24 | 180 | 1.6 | 280 | Cn1c(=O)n(-c2ccc(C[C@H](NC(=O)c3c(F)cc(NS(=O)(=O)c4ccc(-c5ccoc5)cc4)cc3F)C(=O)O)cc2)c(=O)c2ccncc21 [Example 66, N-[2,6-Difluoro-4-({[4-(3-furyl)phenyl]sulfonyl}amino)benzoyl]-4-(1-methyl-2,4-dioxo-1,4-dihydropyrido[3,4-d]pyrimidin-3(2H)-yl)-L-phenylalanine]
3 | 11 | 380 | 0.55 | 210 | Cn1c(=O)n(-c2ccc(C[C@H](NC(=O)c3c(F)cc(NS(=O)(=O)c4ccc(-c5ccncc5)cc4)cc3F)C(=O)O)cc2)c(=O)c2ccncc21 [Example 67, N-(2,6-Difluoro-4-{[(4-pyridin-4-yl-phenyl)sulfonyl]amino}benzoyl)-4-(1-methyl-2,4-dioxo-1,4-dihydropyrido[3,4-d]pyrimidin-3(2H)-yl)-L-phenylalanine]
4 | 9.8 | 920 | 0.13 | 120 | Cn1c(=O)n(-c2ccc(C[C@H](NC(=O)c3c(F)cc(NS(=O)(=O)c4ccc(-c5ccnc(F)c5)cc4)cc3F)C(=O)O)cc2)c(=O)c2ccncc21 [Example 68, N-[2,6-Difluoro-4-({[4-(2-fluoropyridin-4-yl)phenyl]sulfonyl}amino)benzoyl]-4-(1-methyl-2,4-dioxo-1,4-dihydropyrido[3,4-d]pyrimidin-3(2H)-yl)-L-phenylalanine]

Second part, the compound before the results:

Row | SMILES | IC50 (α4β7 integrin [1]) [nM] | Selectivity (α4β7 integrin [2]) | IC50 (α4β7 integrin [2]) [nM] | IC50 (α4β1 integrin) [nM]
5 | Cn1c(=O)n(-c2ccc(C[C@H](NC(=O)c3c(F)cc(NS(=O)(=O)c4ccc(-c5nccs5)cn4)cc3F)C(=O)O)cc2)c(=O)c2ccncc21 [Example 59, N-[2,6-Difluoro-4-({[5-(1,3-thiazol-2-yl)pyridin-2-yl]sulfonyl}amino)benzoyl]-4-(1-methyl-2,4-dioxo-1,4-dihydropyrido[3,4-d]pyrimidin-3(2H)-yl)-L-phenylalanine] | 4.1 | 130 | 0.17 | 22
6 | Cn1ccc(=O)n(-c2ccc(C[C@H](NC(=O)c3c(F)cc(NS(=O)(=O)c4ccc(-c5cncnc5)cc4)cc3F)C(=O)O)cc2)c1=O [Example 60, N-(2,6-Difluoro-4-{[(4-pyrimidin-5-yl-phenyl)sulfonyl]amino}benzoyl)-4-(3-methyl-2,6-dioxo-3,6-dihydropyrimidin-1 (2H)-yl)-L-phenylalanine] | 5.5 | 1100 | 1.1 | 1200
7 | Cn1c(=O)n(-c2ccc(C[C@H](NC(=O)c3c(F)cc(NS(=O)(=O)c4ccc(-n5nccn5)cc4)cc3F)C(=O)O)cc2)c(=O)c2ccncc21 [Example 61, N-[2,6-Difluoro-4-({[4-(2H-1,2,3-triazol-2-yl)phenyl]sulfonyl}amino)benzoyl]-4-(1-methyl-2,4-dioxo-1,4-dihydropyrido[3,4-d]pyrimidin-3(2H)-yl)-L-phenylalanine] | 8.7 | 330 | 0.46 | 150
8 | Cn1c(=O)n(-c2ccc(C[C@H](NC(=O)c3c(F)cc(NS(=O)(=O)c4ccc(-n5cccn5)cc4)cc3F)C(=O)O)cc2)c(=O)c2ccncc21 [Example 62, N-[2,6-Difluoro-4-({[4-(1H-pyrazol-1-yl)phenyl]sulfonyl}amino)benzoyl]-4-(1-methyl-2,4-dioxo-1,4-dihydropyrido[3,4-d]pyrimidin-3(2H)-yl)-L-phenylalanine] | 13 | 160 | 0.64 | 100
9 | Cn1ccc(=O)n(-c2ccc(C[C@H](NC(=O)c3c(F)cc(NS(=O)(=O)c4ccc(-c5cncnc5)cn4)cc3F)C(=O)O)cc2)c1=O [Example 63, N-(2,6-Difluoro-4-{[(5-pyrimidin-5-yl-pyridin-2-yl)sulfonyl]amino}benzoyl)-4-(3-methyl-2,6-dioxo-3,6-dihydropyrimidin-1(2H)-yl)-L-phenylalanine] | 11 | 600 | 0.8 | 480
10 | Cn1ccc(=O)n(-c2ccc(C[C@H](NC(=O)c3c(F)cc(NS(=O)(=O)c4ccc(-n5cccc5)cc4)cc3F)C(=O)O)cc2)c1=O [Example 64, N-[2,6-Difluoro-4-({[4-(1H-pyrrol-1-yl)phenyl]sulfonyl}amino)benzoyl]-4-(3-methyl-2,6-dioxo-3,6-dihydropyrimidin-1(2H)-yl)-L-phenylalanine] | 22 | 750 | 2 | 1500
